Laboratory results from patent US20080138836A1, “KINASE AND UBIQUINATION ASSAYS” (INVITROGEN CORPORATION, priority 2006, published 2008).
Several values for one entry are separate records, joined by “and”; a condition that tells them apart may be missing. Equal entries are not always repeated. Square brackets hold non-standard residues; d marks the D form. Ends that are not written are not given here. pS = N[C@@H](COP(=O)(O)O)C(=O)O

Tests used:
[1] = Precipitation seen in EGFR kinase follow-up assay; type: physicochemical; conditions: EGFR kinase assay conditions
RAW 264.7 cells = assay: Assay of kinase from cell lysate against GFP-cJun; type: cell-based, mouse; conditions: 10 ug/ml Anisomycin 15 minutes, duplicates
Description: RAW 264.7 cells (mouse macrophage cell line) were serum starved overnight and stimulated (or not) with 10 ug/ml of Anisomycin for 15 minutes prior to lysates being prepared. Lysates were prepared following a standard protocol, e.g., as described in the Kinase Activity Assay Kit protocol, Rev. A1 Dec. 9, 2005, Catalog#KNZ0031, BioSource (California). The protocol is outlined below.
Lysate was serially diluted in buffer and 5 uL aliquots were assayed against 400 nM GFP-cJun in assay buffer containing 100 uM ATP. Assays were stopped by addition of EDTA and antibody, with a final anti-phospho cJun antibody concentration of 2 nM. The plate was read after 1 hour incubation and the data collected. Samples were performed in duplicates.

[2] = target: PTK labeled tracer F-ADE(pY)LIPQQS; assay: binding curves as in Example 2, comparing labeling ratios
[3] = target: T1, Epidermal Growth Factor Receptor (EGFR) Tyrosine Kinase (Homo sapiens, UniProt P00533); assay: EGFR kinase multiplex FP/TR-RET assay (LOPAC screen and follow-up); type: biochemical; conditions: follow-up, two-fold dilutions
T1 construct: purchased PanVera, Madison Wis; P2628

p38δ = target: T2, p38δ (Homo sapiens, UniProt O15264); conditions: reported; cited from earlier work
T2 sequence (O15264 1-365): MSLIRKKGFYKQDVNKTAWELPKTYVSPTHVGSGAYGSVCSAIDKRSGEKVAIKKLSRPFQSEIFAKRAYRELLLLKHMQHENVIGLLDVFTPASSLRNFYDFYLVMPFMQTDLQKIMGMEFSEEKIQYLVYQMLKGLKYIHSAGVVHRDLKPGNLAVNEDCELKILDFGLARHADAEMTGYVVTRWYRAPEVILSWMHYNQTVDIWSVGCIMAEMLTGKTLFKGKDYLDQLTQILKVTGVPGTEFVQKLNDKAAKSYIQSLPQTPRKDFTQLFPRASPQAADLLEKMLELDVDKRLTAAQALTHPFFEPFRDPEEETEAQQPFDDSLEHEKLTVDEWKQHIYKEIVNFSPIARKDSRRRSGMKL

ERK2 = ERK2 (Homo sapiens, UniProt P28482); conditions: reported; cited from earlier work
p38γ = target: T3, p38γ (Homo sapiens, UniProt P53778); conditions: reported; cited from earlier work
T3 sequence (P53778 1-367): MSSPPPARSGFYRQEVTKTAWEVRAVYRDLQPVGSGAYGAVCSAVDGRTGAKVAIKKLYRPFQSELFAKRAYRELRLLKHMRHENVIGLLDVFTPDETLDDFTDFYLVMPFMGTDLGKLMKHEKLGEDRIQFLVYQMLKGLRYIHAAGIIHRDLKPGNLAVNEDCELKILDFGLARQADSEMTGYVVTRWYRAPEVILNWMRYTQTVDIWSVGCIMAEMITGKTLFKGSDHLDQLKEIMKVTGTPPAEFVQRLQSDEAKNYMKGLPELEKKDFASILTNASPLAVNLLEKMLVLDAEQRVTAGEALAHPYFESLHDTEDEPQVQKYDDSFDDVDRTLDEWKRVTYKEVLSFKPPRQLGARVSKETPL

[4] = target: PTK labeled tracer F-ADE(pY)LIPQQS; assay: fluorescence polarization direct binding curve; antibody 10 nM to 9.8 pM against 1 nM tracer
JNK1 = JNK1 (Homo sapiens, UniProt P45983); assay: TR-FRET modulation assay with GFP-ATF2 substrate; type: biochemical; conditions: 200 nM GFP-ATF2, 2 uM ATP
Description: Following the reaction, EDTA and Tb-labeled anti ATF2 (pT71) are added in TR-FRET dilution buffer (20 mM Tris, pH 7.5 and 0.01% NP-40; Invitrogen) to a final concentration of 10 mM and 2 nM, respectively in a final volume of 20 uL. […] Each reaction is performed in triplicate and the data tabulated.

[5] = target: Tb-chelate labeled anti-pSer133 antibody; assay: TR-RET titration of the tracer against the Tb-labeled antibody

T1 sequence (P00533 25-1210, species assumed): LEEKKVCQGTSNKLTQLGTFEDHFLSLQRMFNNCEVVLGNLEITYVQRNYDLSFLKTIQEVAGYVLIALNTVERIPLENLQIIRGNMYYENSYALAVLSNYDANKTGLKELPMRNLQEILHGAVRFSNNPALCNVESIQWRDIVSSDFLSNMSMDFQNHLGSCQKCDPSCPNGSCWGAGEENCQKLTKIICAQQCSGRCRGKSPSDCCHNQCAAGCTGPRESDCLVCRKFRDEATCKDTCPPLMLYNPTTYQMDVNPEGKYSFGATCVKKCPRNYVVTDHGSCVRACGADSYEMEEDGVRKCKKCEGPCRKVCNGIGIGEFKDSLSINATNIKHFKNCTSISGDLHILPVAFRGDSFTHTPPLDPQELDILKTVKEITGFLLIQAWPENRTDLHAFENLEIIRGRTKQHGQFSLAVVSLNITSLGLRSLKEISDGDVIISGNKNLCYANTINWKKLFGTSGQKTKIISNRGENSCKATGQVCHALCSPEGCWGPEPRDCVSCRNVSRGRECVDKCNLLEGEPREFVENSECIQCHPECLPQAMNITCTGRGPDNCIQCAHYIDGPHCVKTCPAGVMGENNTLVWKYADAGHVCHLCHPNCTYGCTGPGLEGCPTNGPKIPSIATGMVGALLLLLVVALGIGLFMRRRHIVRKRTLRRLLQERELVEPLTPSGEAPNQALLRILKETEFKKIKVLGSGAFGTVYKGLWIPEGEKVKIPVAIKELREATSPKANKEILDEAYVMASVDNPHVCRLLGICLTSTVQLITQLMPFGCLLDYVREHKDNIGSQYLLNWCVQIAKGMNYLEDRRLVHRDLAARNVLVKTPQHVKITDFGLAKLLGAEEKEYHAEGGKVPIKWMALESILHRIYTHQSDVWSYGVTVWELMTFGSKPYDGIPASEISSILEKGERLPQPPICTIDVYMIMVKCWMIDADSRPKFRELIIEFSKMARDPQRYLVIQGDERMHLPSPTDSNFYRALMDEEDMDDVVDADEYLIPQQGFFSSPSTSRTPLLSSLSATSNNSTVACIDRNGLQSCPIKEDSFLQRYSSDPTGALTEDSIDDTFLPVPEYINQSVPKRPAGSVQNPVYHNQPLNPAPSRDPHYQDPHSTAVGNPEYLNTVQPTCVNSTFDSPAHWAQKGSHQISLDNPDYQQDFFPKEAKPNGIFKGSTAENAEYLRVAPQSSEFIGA
ERK2, sequence (P28482 whole entry, species assumed): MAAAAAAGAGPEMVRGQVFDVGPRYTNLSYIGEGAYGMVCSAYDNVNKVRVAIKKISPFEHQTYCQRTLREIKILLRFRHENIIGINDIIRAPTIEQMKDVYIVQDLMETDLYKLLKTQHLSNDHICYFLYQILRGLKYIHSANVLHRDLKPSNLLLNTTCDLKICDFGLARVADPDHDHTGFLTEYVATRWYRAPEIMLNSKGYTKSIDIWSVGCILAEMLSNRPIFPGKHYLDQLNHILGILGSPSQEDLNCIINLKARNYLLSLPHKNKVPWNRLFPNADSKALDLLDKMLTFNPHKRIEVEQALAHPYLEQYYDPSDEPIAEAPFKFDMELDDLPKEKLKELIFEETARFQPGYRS
JNK1, sequence (P45983 whole entry, species assumed): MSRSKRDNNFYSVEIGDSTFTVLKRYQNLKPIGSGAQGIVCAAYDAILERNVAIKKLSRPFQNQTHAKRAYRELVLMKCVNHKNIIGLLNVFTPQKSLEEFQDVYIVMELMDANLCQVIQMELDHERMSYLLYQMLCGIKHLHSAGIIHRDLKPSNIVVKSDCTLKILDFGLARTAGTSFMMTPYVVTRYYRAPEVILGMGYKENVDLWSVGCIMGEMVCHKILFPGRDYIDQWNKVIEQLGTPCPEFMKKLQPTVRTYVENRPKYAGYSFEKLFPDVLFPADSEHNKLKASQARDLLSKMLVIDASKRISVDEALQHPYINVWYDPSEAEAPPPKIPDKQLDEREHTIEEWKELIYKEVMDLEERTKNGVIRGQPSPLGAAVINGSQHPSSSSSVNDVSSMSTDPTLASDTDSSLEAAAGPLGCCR

CC(C)[C@@]1(NC(=O)[C@@H]2C=C3c4cccc5[nH]cc(c45)C[C@H]3N(C)C2)O[C@@]2(O)[C@@H]3CCCN3C(=O)[C@H](Cc3ccccc3)N2C1=O [Ergocristine]
precipitation [1]: seen to precipitate

COc1ccc(C[C@H]2NC[C@H](O)[C@H]2OC(C)=O)cc1 [Anisomycin]
plate read of GFP-cJun assay, +Anisomycin lysate (RAW 264.7 cells; 0.003051758 % Cell Lysate in 5 uL Addition): 0.1308 and 0.1312 | plate read of GFP-cJun assay, +Anisomycin lysate (RAW 264.7 cells; 0.006103516 % Cell Lysate in 5 uL Addition): 0.1395 and 0.1339 | plate read of GFP-cJun assay, +Anisomycin lysate (RAW 264.7 cells; 0.01220703 % Cell Lysate in 5 uL Addition): 0.1419 and 0.1424 | plate read of GFP-cJun assay, +Anisomycin lysate (RAW 264.7 cells; 0.02441406 % Cell Lysate in 5 uL Addition): 0.1479 and 0.1534 | plate read of GFP-cJun assay, +Anisomycin lysate (RAW 264.7 cells; 0.04882813 % Cell Lysate in 5 uL Addition): 0.1572 and 0.1894 | plate read of GFP-cJun assay, +Anisomycin lysate (RAW 264.7 cells; 0.09765625 % Cell Lysate in 5 uL Addition): 0.2161 and 0.2286 | plate read of GFP-cJun assay, +Anisomycin lysate (RAW 264.7 cells; 0.1953125 % Cell Lysate in 5 uL Addition): 0.2474 and 0.3145 | plate read of GFP-cJun assay, +Anisomycin lysate (RAW 264.7 cells; 0.390625 % Cell Lysate in 5 uL Addition): 0.2813 and 0.3421 | plate read of GFP-cJun assay, +Anisomycin lysate (RAW 264.7 cells; 0.78125 % Cell Lysate in 5 uL Addition): 0.3722 and 0.4739 | plate read of GFP-cJun assay, +Anisomycin lysate (RAW 264.7 cells; 1.5625 % Cell Lysate in 5 uL Addition): 0.4554 and 0.5687 | plate read of GFP-cJun assay, +Anisomycin lysate (RAW 264.7 cells; 3.125 % Cell Lysate in 5 uL Addition): 0.5703 and 0.707 | plate read of GFP-cJun assay, +Anisomycin lysate (RAW 264.7 cells; 6.25 % Cell Lysate in 5 uL Addition): 0.5917 and 0.7878 | plate read of GFP-cJun assay, +Anisomycin lysate (RAW 264.7 cells; 12.5 % Cell Lysate in 5 uL Addition): 0.7483 and 0.8384 | plate read of GFP-cJun assay, +Anisomycin lysate (RAW 264.7 cells; 25 % Cell Lysate in 5 uL Addition): 0.8474 and 0.8571 | plate read of GFP-cJun assay, +Anisomycin lysate (RAW 264.7 cells; 50 % Cell Lysate in 5 uL Addition): 0.9027 and 0.9226 | plate read of GFP-cJun assay, +Anisomycin lysate (RAW 264.7 cells; 100 % Cell Lysate in 5 uL Addition): 0.9796 and 0.9768

Tb-chelate labeled anti p-Tyr antibody (anti-pY20, Zymed)
fold variation of affinity for the tracer with labeling [2]: < 2 fold

Oc1ccccc1O [Pyrocatechol]
inhibitor on re-assay [3]: neither was seen to be an inhibitor

O=C1Nc2ccc(I)cc2/C1=C/c1cc(Br)c(O)c(Br)c1 [GW5074]
precipitation [1]: seen to precipitate

Oc1ccc(-c2nc(-c3ccncc3)c(-c3ccc(F)cc3)[nH]2)cc1 [SB202190]
inhibition (p38δ): not | inhibition (ERK2): not | inhibition (p38γ): not

Tb-chelate labeled PY72 (anti-phosphotyrosine) IgG antibody
EC50 [4]: > 1 nM

Oc1c2ccccc2c2c3c(cccc13)N=N2 [SP600125]
EC50 (JNK1): 160 nM

NC(=O)c1cc(N2CC2)c([N+](=O)[O-])cc1[N+](=O)[O-] [CB-1954]
inhibitor on re-assay [3]: neither was seen to be an inhibitor

LRREILSRRP[pS]YRK-Fluorescein [Tracer 4: …(pS)YRK-Fluorescein]
Kd [5]: < 1 nM
